{"source": "patent US20110039721A1", "about": "“METHOD FOR PREDICTION ABOUT CARCINOGENICITY OF SUBSTANCE IN RODENT” (Chemicals Evaluation and Research Institute, priority 2007, published 2011)", "tested_on": "mRNA expressed from the genes (A) to (D) in rat liver", "test": "Behavior of genes (mRNA expression level, oligo-DNA microarray) in rat liver after 28-day oral administration", "type": "in vivo", "details": "rat liver, oral once daily 28 days", "method": "A test solution was prepared by dissolving each of the carcinogens and the non-carcinogens shown in Tables 2 to 6 in the corresponding solvent shown in Tables 2 to 6. Each of the thus prepared test solutions and the solvents used for the preparation was administered by oral gavage to rats in each group. As the rats, male rats (F344 SPF rats) at 5 weeks of age obtained from Charles River Laboratories Japan, Inc. were used. The animals were divided into groups, each containing four individuals. The volume of the solvent administered to the vehicle control group was set to the same volume as that of the test solution administered to the carcinogen administration group or the non-carcinogen administration group. The administration of the test solution or the solvent was performed once daily for 28 days. Apiece was excised from the liver of each of the rats after a lapse of 28 days from the initiation of the administration, and the total RNA was extracted and purified.\nThe expression level of mRNA was compared between each of the chemical substance administration groups and the corresponding vehicle control group, and genes that satisfy the requirements described in (A) to (D) were selected, respectively.\nThe case where the expression level of mRNA in the carcinogen administration group or the non-carcinogen administration group is 1.5 times or more or 1/1.5 or less of the expression level of the corresponding mRNA expressed in the control group was determined to be significant. In this connection, the determination as to whether or not the change is significant was performed by taking into consideration the direction of increase or decrease in the expression level. In the case where the direction of increase or decrease is different as compared with the case where another carcinogen was administered, the change was determined to be not significant.", "key": {"[1]": {"details": "(C), Unigene Rn.120914, defined direction +"}}, "data": [{"smiles": "COC(N)=O", "note": "[TS029, Methyl carbamate]", "values": [{"measurement": "Behavior of gene caused by administration of chemical substance, Gene No. 4846", "setting": "(A), Unigene Rn.144554, defined direction +", "value": "+"}, {"measurement": "Behavior of gene caused by administration of chemical substance, Gene No. 4218", "setting": "(A), Unigene Rn.167075, defined direction +, significant = 1.5 times or more or 1/1.5 or less of control", "value": "+"}, {"measurement": "Behavior of gene caused by administration of chemical substance, Gene No. 2026", "setting": "(A), Unigene Rn.167075, defined direction −", "value": "+"}, {"measurement": "Behavior of gene caused by administration of chemical substance, Gene No. 6182", "setting": "(A), Unigene Rn.5834, defined direction +", "value": "+"}, {"measurement": "Behavior of gene caused by administration of chemical substance, Gene No. 5600", "setting": "(A), Unigene Rn.9836, defined direction +", "value": "+"}, {"measurement": "Behavior of gene caused by administration of chemical substance, Gene No. 1494", "setting": "(B), Unigene Rn.1430, defined direction −", "value": "+"}, {"measurement": "Behavior of gene caused by administration of chemical substance, Gene No. 2045", "setting": "(B), Unigene Rn.19329, defined direction +", "value": "−"}, {"measurement": "Behavior of gene caused by administration of chemical substance, Gene No. 2203", "setting": "(B), Unigene Rn.21240, defined direction +", "value": "−"}, {"measurement": "Behavior of gene caused by administration of chemical substance, Gene No. 533", "setting": "(C), Unigene Rn.106184, defined direction +", "value": "+"}, {"measurement": "Behavior of gene caused by administration of chemical substance, Gene No. 725", "setting": "(C), Unigene Rn.108075, defined direction −", "value": "−"}, {"measurement": "Behavior of gene caused by administration of chemical substance, Gene No. 1163", "setting": "(C), Unigene Rn.11766, defined direction +", "value": "−"}, {"measurement": "Behavior of gene caused by administration of chemical substance, Gene No. 4973", "setting": "(C), Unigene Rn.118529, defined direction −", "value": "−"}, {"measurement": "Behavior of gene caused by administration of chemical substance, Gene No. 4095", "setting": "(C), Unigene Rn.119024, defined direction −", "value": "−"}, {"measurement": "Behavior of gene caused by administration of chemical substance, Gene No. 1334", "setting": "[1]", "value": "−"}, {"measurement": "Behavior of gene caused by administration of chemical substance, Gene No. 6620", "setting": "[1]", "value": "−"}, {"measurement": "Behavior of gene caused by administration of chemical substance, Gene No. 6303", "setting": "(C), Unigene Rn.123063, defined direction −", "value": "+"}, {"measurement": "Behavior of gene caused by administration of chemical substance, Gene No. 5878", "setting": "(C), Unigene Rn.143213, defined direction −", "value": "−"}, {"measurement": "Behavior of gene caused by administration of chemical substance, Gene No. 1131", "setting": "(C), Unigene Rn.144946, defined direction −", "value": "−"}, {"measurement": "Behavior of gene caused by administration of chemical substance, Gene No. 1562", "setting": "(C), Unigene Rn.14744, defined direction −", "value": "+"}, {"measurement": "Behavior of gene caused by administration of chemical substance, Gene No. 1741", "setting": "(C), Unigene Rn.1647, defined direction −", "value": "+"}, {"measurement": "Behavior of gene caused by administration of chemical substance, Gene No. 893", "setting": "(C), Unigene Rn.164817, defined direction +", "value": "−"}, {"measurement": "Behavior of gene caused by administration of chemical substance, Gene No. 6026", "setting": "(C), Unigene Rn.167685, defined direction −", "value": "−"}, {"measurement": "Behavior of gene caused by administration of chemical substance, Gene No. 154", "setting": "(C), Unigene Rn.185941, defined direction −", "value": "+"}, {"measurement": "Behavior of gene caused by administration of chemical substance, Gene No. 1993", "setting": "(C), Unigene Rn.18728, defined direction −", "value": "+"}, {"measurement": "Behavior of gene caused by administration of chemical substance, Gene No. 813", "setting": "(C), Unigene Rn.201760, defined direction +", "value": "−"}, {"measurement": "Behavior of gene caused by administration of chemical substance, Gene No. 2494", "setting": "(C), Unigene Rn.23969, defined direction +", "value": "−"}, {"measurement": "Behavior of gene caused by administration of chemical substance, Gene No. 2546", "setting": "(C), Unigene Rn.24561, defined direction −", "value": "−"}, {"measurement": "Behavior of gene caused by administration of chemical substance, Gene No. 3776", "setting": "(C), Unigene Rn.43232, defined direction −", "value": "+"}, {"measurement": "Behavior of gene caused by administration of chemical substance, Gene No. 3929", "setting": "(C), Unigene Rn.4620, defined direction +", "value": "−"}, {"measurement": "Behavior of gene caused by administration of chemical substance, Gene No. 1119", "setting": "(C), Unigene Rn.9757, defined direction +", "value": "−"}, {"measurement": "Behavior of gene caused by administration of chemical substance, Gene No. 6742", "setting": "(C), Unigene Rn.9779, defined direction +", "value": "−"}, {"measurement": "Behavior of gene caused by administration of chemical substance, Gene No. 5634", "setting": "(C), Unigene Rn.9862, defined direction −", "value": "−"}, {"measurement": "Behavior of gene caused by administration of chemical substance, Gene No. 5726", "setting": "(D), Unigene Rn.9939, defined direction −", "value": "−"}]}]}
